One compound from the NIST ThermoML archive (doi:10.1021/je200853g) can be followed below.

Numbers after ± are expanded uncertainties.

The conditions of data set [1]: Crystal; DTA.
Data set [2] in a line: Molar enthalpy of transition or fusion. The following applies: Crystal; DSC.

On to `Cc1ncc(CO)c(CO)c1O` [5-hydroxy-6-methyl-3,4-pyridinedimethanol], for which the Triple point temperature in data set [1] is listed as 433.18 ± 0.5 K. Also, the “Molar enthalpy of transition or fusion” value in data set [2] was determined as 7.45 ± 0.217 kcal/mol.
